Converted amounts (≈) assume the structure as drawn.
Assays:
[1] = Physical and chemical (solid-state) stability under 25° C./60% RH and 40° C./75% RH for one week; format: physicochemical; settings: for Form change: XRPD
Description: Physicochemical stability of Type A (807919-05-A) was evaluated under 25° C./60% RH and 40° C./75% RH for one week, and 80° C. (closed) for 24 hours.

[2] = Kinetic solubility in water and bio-relevant media (SGF, FaSSIF, FeSSIF) at RT; format: physicochemical; settings: for FC: Solid form change / S: Solubility / pH: Final pH of supernatant: RT
Description: After being centrifuged and separated using 0.45 μm Nylon filter, filtrates were collected for HPLC and pH test, and wet cakes for XRPD characterization. If clear solutions were obtained after 24 hours, accurate concentration and purity were measured for the solutions.

SMILES: CCOCc1nc2c(N)nc3ccccc3c2n1CC(C)(C)O [Freebase Type A, 1-[4-amino-2-(ethoxymethyl)imidazo-[4,5-c]-quinolin-1-yl]-2-methylpropan-2-ol]
- HPLC Purity % of Initial ([1]; 25° C./60% RH): 99.8%
- HPLC Purity Area % ([1]; 25° C./60% RH): 99.15 Area %
- Form change ([1]; 25° C./60% RH): No
- HPLC Purity % of Initial ([1]; 40° C./75% RH): 100.0%
- HPLC Purity Area % ([1]; 40° C./75% RH): 99.28 Area %
- Form change ([1]; 40° C./75% RH): No
- solubility kinetic ([2]; FaSSIF): ~2900 µg/mL (≈ 9.22 mM)
- FC: Solid form change ([2]; FaSSIF, 1 hr): No
- S: Solubility ([2]; FaSSIF, 1 hr): 2700 µg/mL
- pH: Final pH of supernatant ([2]; FaSSIF, 1 hr): 7.0
- FC: Solid form change ([2]; FaSSIF, 2 hrs): No
- S: Solubility ([2]; FaSSIF, 2 hrs): 2800 µg/mL
- pH: Final pH of supernatant ([2]; FaSSIF, 2 hrs): 7.0
- FC: Solid form change ([2]; FaSSIF, 4 hrs): No
- S: Solubility ([2]; FaSSIF, 4 hrs): 2800 µg/mL
- pH: Final pH of supernatant ([2]; FaSSIF, 4 hrs): 7.1
- FC: Solid form change ([2]; FaSSIF, 24 hrs): No
- S: Solubility ([2]; FaSSIF, 24 hrs): 2900 µg/mL
- pH: Final pH of supernatant ([2]; FaSSIF, 24 hrs): 7.0
- pH: Final pH of supernatant ([2]; FeSSIF, 24 hrs): 5.4
- solubility kinetic ([2]; SGF and FeSSIF, simulated gastric fluid, SGF/FeSSIF): > 4900 µg/mL
- S: Solubility ([2]; SGF, 1 hr): 2700 µg/mL
- pH: Final pH of supernatant ([2]; SGF, 1 hr): 3.6
- S: Solubility ([2]; SGF, 2 hrs): 3500 µg/mL
- pH: Final pH of supernatant ([2]; SGF, 2 hrs): 5.0
- S: Solubility ([2]; SGF, 4 hrs): 5000 µg/mL
- pH: Final pH of supernatant ([2]; SGF, 4 hrs): 5.0
- S: Solubility ([2]; SGF, 24 hrs): 5000 µg/mL
- pH: Final pH of supernatant ([2]; SGF, 24 hrs): 4.9
- FC: Solid form change ([2]; Water, 1 hr): No
- S: Solubility ([2]; Water, 1 hr): 500 µg/mL
- pH: Final pH of supernatant ([2]; Water, 1 hr): 8.4
- FC: Solid form change ([2]; Water, 2 hrs): No
- S: Solubility ([2]; Water, 2 hrs): 500 µg/mL
- pH: Final pH of supernatant ([2]; Water, 2 hrs): 8.6
- FC: Solid form change ([2]; Water, 4 hrs): No
- S: Solubility ([2]; Water, 4 hrs): 500 µg/mL
- pH: Final pH of supernatant ([2]; Water, 4 hrs): 8.1
- FC: Solid form change ([2]; Water, 24 hrs): No
- S: Solubility ([2]; Water, 24 hrs): 500 µg/mL
- pH: Final pH of supernatant ([2]; Water, 24 hrs): 8.1
- Kinetic Solubility at RT ([2]; water): ~0.5 (water) mg/mL
